# In US20230331691A1, “TREPROSTINIL DERIVATIVE COMPOUNDS AND METHODS OF USING SAME” (CORSAIR PHARMA, INC., priority 2013, published 2023):
# Tests used:
# [1] = Human plasma stability assay (Test 2); format: in vitro ADME; settings: heparinated human plasma, 0.5 uM test compound, 37° C., up to 120 minutes; read-out: Test 2 T½
# Experimental: (Test 2) Human plasma stability assay was conducted by incubating 0.5 uM test compounds at 37° C. for up to 120 minutes in heparinated human plasma. At 0, 5, 15, 30, 60 and 120 […] min., an aliquot was taken, quenched with internal standard containing stop solution. After incubation, the samples were analyzed by LC-MS/MS. Peak area ratios of analyte to internal standard were used to calculate the half-life. Formation of the active drug Compound A over the time course was also monitored by LC-MS/MS analysis.
# [2] = Human liver microsomal stability assay (Test 1); format: in vitro ADME; settings: human liver microsomes, 0.5 uM test compound, 37° C., up to 45 minutes, pH 7.4, NADPH generating system; read-out: Test 1 T½
# Experimental: (§1) (Test 1) Human liver microsomal stability assay was conducted by incubating 0.5 uM test compounds at 37° C. for up to 45 minutes in 50 mM of potassium phosphate buffer (pH 7.4) containing 0.5 mg of microsomal protein and 50 µL of NADPH generating system (7.8 mg of glucose 6-phosphate, 1.7 mg of NADPH and 6 U of glucose 6-phosphate dehydrogenase per mL in 2% w/v of sodium bicarbonate). At 0, 5, 15, 30 and 45 min., an aliquot was taken, quenched with internal standard containing stop solution. No co-factor controls at 45 minutes were also prepared. After incubation, the samples were analyzed by LC-MS/MS. Peak area ratios of analyte to internal standard were used to calculate the intrinsic clearance. The intrinsic clearance (CLint) was determined from the first order elimination constant by non-linear regression. Formation of the active drug Compound A over the time course was also monitored by LC-MS/MS analysis.
# [3] = Human hepatocyte stability assay (Test 4); format: in vitro ADME; settings: cryopreserved human hepatocytes; human hepatocytes 0.5 million cells/mL, 0.5 uM test compound, 37° C., up to 240 minutes; read-out: Test 4 T½
# Experimental: (Test 4) Human hepatocyte stability assay was conducted by incubating 0.5 uM test compound at 37° C. for up to 240 minutes. Cryopreserved human hepatocytes were obtained from Celsis IVT ( Baltimore, Maryland). Cells were thawed according to vendor’s instructions and were suspended in William’s Medium E to 0.5 million cells/mL. Test compounds were spiked into the cell suspension to initiate the reactions. At 0, 10, 30, 60, 120 and 240 min., an aliquot was taken, quenched with internal standard containing stop solution. After incubation, the samples were analyzed by LC-MS/MS. Peak area ratios of analyte to internal standard were used to calculate the intrinsic clearance. The intrinsic clearance (CLint) was determined from the first order elimination constant by non-linear regression. Formation of the active drug Compound A over the time course was also monitored by LC-MS/MS analysis.
# [4] = Human skin homogenate stability assay (Test 3); format: in vitro ADME; settings: 0.5 uM test compound, 37° C., up to 45 minutes, pH 7.4, NADPH generating system, read-out: Test 3 T½
# Experimental: as §1, with “3)” for “1)”, “skin homogenate” for “liver microsomal”, “conducted in a similar way as the human liver microsomal stability assay,” for “conducted”, “human skin homogenate” for “microsomal”
# [5] = treprostinil as the free acid, cited from earlier work
half-life at 0.5 uM [1],half-life at 0.5 uM [2],half-life at 0.5 uM [3],half-life at 0.5 uM [4],SMILES,absolute oral bioavailability ([5]; oral),systemic half life ([5]; due to significant metabolism)
> 60 min,< 15 min,31 to 60 min,,"CCCCC[C@H](O)CC[C@@H]1[C@H]2Cc3cccc(OCC(=O)NCC4CC4)c3C[C@H]2C[C@H]1O [Compound 2, N-Cyclopropylmethyl-2-[2-hydroxy-1-(3-hydroxy-octyl)-2,3,3a,4,9,9a-hexahydro-1H-cyclopenta[b]naphthalen-5-yloxy]-acetamide]",,
> 60 min,15 to 30 min,15 to 30 min,,"CCCCC[C@H](O)CC[C@@H]1[C@H]2Cc3cccc(OCC(=O)NCCO)c3C[C@H]2C[C@H]1O [Compound 7, N-(2-Hydroxy-ethyl)-2-[2-hydroxy-1-(3-hydroxy-octyl)-2,3,3a,4,9,9a-hexahydro-1H-cyclopenta[b]naphthalen-5-yloxy]-acetamide]",,
> 60 min,< 15 min,< 15 min,,"CCCCC[C@H](O)CC[C@@H]1[C@H]2Cc3cccc(OCC(=O)N(C)CC(=O)OC)c3C[C@H]2C[C@H]1O [Compound 13, ({2-[2-Hydroxy-1-(3-hydroxy-octyl)-2,3,3a,4,9,9a-hexahydro-1H-cyclopenta[b]naphthalen-5-yloxy]-acetyl}-methyl-amino)-acetic acid methyl ester]",,
> 60 min,< 15 min,< 15 min,> 60 min,"CCCCC[C@H](O)CC[C@@H]1[C@H]2Cc3cccc(OCC(=O)NCC(F)(F)F)c3C[C@H]2C[C@H]1O [Compound 14, 2-[2-Hydroxy-1-(3-hydroxy-octyl)-2,3,3a,4,9,9a-hexahydro-1H-cyclopenta[b]naphthalen-5-yloxy]-N-(2,2,2-trifluoro-ethyl)-acetamide]",,
> 60 min,< 15 min,,> 60 min,"CCCCC[C@H](O)CC[C@@H]1[C@H]2Cc3cccc(OCC(=O)OC)c3C[C@H]2C[C@H]1OC(=O)CCCC [Compound 22, Pentanoic acid 1-(3-hydroxy-octyl)-5-methoxycarbonylmethoxy-2,3,3a,4,9,9a-hexahydro-1H-cyclopenta[b]naphthalen-2-yl ester]",,
> 60 min,< 15 min,,31 to 60 min,"CCCCC[C@H](O)CC[C@@H]1[C@H]2Cc3cccc(OCC(=O)OC)c3C[C@H]2C[C@H]1OC(=O)OCC [Compound 25, [2-Ethoxycarbonyloxy-1-(3-hydroxy-octyl)-2,3,3a,4,9,9a-hexahydro-1H-cyclopenta[b]naphthalen-5-yloxy]-acetic acid methyl ester]",,
31 to 60 min,< 15 min,,31 to 60 min,CCCCC[C@H](O)CC[C@@H]1[C@H]2Cc3cccc(OCC(=O)O[C@H](C)CC)c3C[C@H]2C[C@H]1O [Compound 60],,
15 to 30 min,< 15 min,,31 to 60 min,CCCCC[C@H](O)CC[C@@H]1[C@H]2Cc3cccc(OCC(=O)O[C@@H](C)CC)c3C[C@H]2C[C@H]1O [Compound 61],,
31 to 60 min,< 15 min,,> 60 min,CCCCC[C@H](O)CC[C@@H]1[C@H]2Cc3cccc(OCC(=O)O[C@H](C)C(C)C)c3C[C@H]2C[C@H]1O [Compound 62],,
31 to 60 min,< 15 min,,31 to 60 min,CCCCC[C@H](O)CC[C@@H]1[C@H]2Cc3cccc(OCC(=O)O[C@@H](C)C(C)C)c3C[C@H]2C[C@H]1O [Compound 63],,
> 60 min,< 15 min,,> 60 min,CCCCCCCCOC(=O)COc1cccc2c1C[C@H]1C[C@@H](O)[C@H](CC[C@@H](O)CCCCC)[C@H]1C2 [Compound 64],,
,,,,CCCCC[C@H](O)CC[C@@H]1[C@H]2Cc3cccc(OCC(=O)O)c3C[C@H]2C[C@H]1O [treprostinil],less than 10%,very short

SMILES,half-life at 0.5 uM [1],half-life at 0.5 uM [2],half-life at 0.5 uM [3],half-life at 0.5 uM [4],absolute oral bioavailability ([5]; oral),systemic half life ([5]; due to significant metabolism)
"CCCCC[C@H](O)CC[C@@H]1[C@H]2Cc3cccc(OCC(=O)OC)c3C[C@H]2C[C@H]1OC(C)=O [Compound 26, [2-Acetoxy-1-(3-hydroxy-octyl)-2,3,3a,4,9,9a-hexahydro-1H-cyclopenta[b]naphthalen-5-yloxy]-acetic acid methyl ester]",15 to 30 min,< 15 min,,15 to 30 min,,
